In ChEMBL document CHEMBL1201862, “PubChem BioAssay data set” (2004):
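Grown in 96-well plates, cells were treated for 48 hours with each compound at five concentrations. Insufficient inhibition: endpoint recorded as highest concentration tested. The concentration for 50% growth inhibition is given as GI50.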 Active and inactive are the calls of the source. No stated cut-off is given here; in the data, active = GI50 up to about 1.1 µM and inactive = higher. Where a SMILES comes first, the peptide text is derived from it. [ ]: non-standard residue; d: D form. The star is where a group is joined. Phe(4-NO2) = N[CH](Cc1ccc([N+](=O)[O-])cc1)C(=O)O; Boc = CC(C)(C)OC(=O)*; OtBu = CC(C)(C)O*

What was measured:
Assay in all cases: DTP human tumour cell line panel, 48 h
[1] = test system: HL-60
[2] = test system: U-251
[3] = test system: UO-31
[4] = test system: HT-29
[5] = test system: HCT-116
[6] = test system: EKVX
[7] = test system: HCC 2998
[8] = test system: DMS-273
[9] = test system: SR
[10] = test system: MOLT-4
[11] = test system: Malme-3M
[12] = test system: LXFL 529
[13] = test system: NCI-H226
[14] = test system: COLO 205
[15] = test system: OVCAR-8
[16] = test system: RXF 393
[17] = test system: SF-268
[18] = test system: M19-MEL
[19] = test system: PC-3
[20] = test system: XF498

SMILES | GI50 [1] | GI50 [2] | GI50 [3] | GI50 [4] | GI50 [5] | GI50 [6] | GI50 [7] | GI50 [8] | GI50 [9] | GI50 [10] | GI50 [11] | GI50 [12] | GI50 [13] | GI50 [14] | GI50 [15] | GI50 [16] | GI50 [17] | GI50 [18] | GI50 [19] | GI50 [20]
COC(=O)C1Cc2c([nH]c3ccccc23)C(c2ccccc2O)N1 (stereo unspecified) | 28.5 µM (inactive) | > 100 µM (inactive) | 43.1 µM (inactive) | 44.9 µM (inactive) | 66.8 µM (inactive) | > 100 µM (inactive) | 60.1 µM (inactive) | 60.4 µM (inactive) | > 100 µM (inactive) | 41.9 µM (inactive) | > 100 µM (inactive) | 62.7 µM (inactive) | > 100 µM (inactive) | 35.3 µM (inactive) | 68.1 µM (inactive) |  |  |  |  | 
O=C1c2ccccc2N2OC3C4CCC(C4)C3C12c1ccccc1 (stereo unspecified) | 33.5 µM (inactive) | 86.5 µM (inactive) | 71.3 µM (inactive) | 61.4 µM (inactive) | 45.5 µM (inactive) | > 100 µM (inactive) | > 100 µM (inactive) | 39.6 µM (inactive) | 44.1 µM (inactive) | 32.1 µM (inactive) | > 100 µM (inactive) | 73.8 µM (inactive) | > 100 µM (inactive) | > 100 µM (inactive) | > 100 µM (inactive) | 16.5 µM (inactive) | > 100 µM (inactive) | 93.1 µM (inactive) |  | 
O=C(/C=C/c1ccccc1Cl)c1ccccc1Cl | 22.4 µM (inactive) | 16.3 µM (inactive) | 15.9 µM (inactive) | 18.8 µM (inactive) | 14.6 µM (inactive) | 22.4 µM (inactive) | 21.6 µM (inactive) | 16.9 µM (inactive) |  | 23.8 µM (inactive) | 31.8 µM (inactive) | 17.2 µM (inactive) | 45.9 µM (inactive) | 21.4 µM (inactive) | 17.3 µM (inactive) |  | 23.4 µM (inactive) | 25.8 µM (inactive) |  | 
O=c1cc(C(F)(F)F)c2cc3c(cc2o1)NCCC3 | > 100 µM (inactive) | 23.1 µM (inactive) | 61.1 µM (inactive) | > 100 µM (inactive) | 28.8 µM (inactive) | 6.4 µM (inactive) | > 100 µM (inactive) |  | > 100 µM (inactive) | > 100 µM (inactive) | > 100 µM (inactive) |  | > 100 µM (inactive) | > 100 µM (inactive) | 42.2 µM (inactive) | < 0.01 µM (active) | 24.5 µM (inactive) |  | 85.3 µM (inactive) | 
CCN(CC)CCCNc1nncc2cc3c([nH]c4ccc(OC)cc43)c(C)c12 | < 0.01 µM (active) | 3.69 µM (inactive) | 11.5 µM (inactive) | 3.4 µM (inactive) | 3.38 µM (inactive) | 15.8 µM (inactive) | 6.1 µM (inactive) |  | 4.63 µM (inactive) | 2.3 µM (inactive) | 13.7 µM (inactive) |  | 7.41 µM (inactive) | 7.26 µM (inactive) | 3.98 µM (inactive) | 5.81 µM (inactive) | 6.65 µM (inactive) |  | 4.01 µM (inactive) | 
O=C1C2C=CC(C2)C(c2ccc(O)cc2)N1O (stereo unspecified) | > 100 µM (inactive) | > 100 µM (inactive) | > 100 µM (inactive) | > 100 µM (inactive) | > 100 µM (inactive) | > 100 µM (inactive) | > 100 µM (inactive) |  | > 100 µM (inactive) | > 100 µM (inactive) | > 100 µM (inactive) | > 100 µM (inactive) | > 100 µM (inactive) | > 100 µM (inactive) | > 100 µM (inactive) |  | > 100 µM (inactive) | > 100 µM (inactive) |  | > 100 µM (inactive)
CC(C)(C)OC(=O)N1N=NC2C3OC(CC3=O)C21 (stereo unspecified) |  | > 100 µM (inactive) | > 100 µM (inactive) | > 100 µM (inactive) | > 100 µM (inactive) | > 100 µM (inactive) | > 100 µM (inactive) | > 100 µM (inactive) | 77.4 µM (inactive) | > 100 µM (inactive) | > 100 µM (inactive) | > 100 µM (inactive) | 2.8 µM (inactive) | > 100 µM (inactive) | > 100 µM (inactive) | > 10 µM (inactive) | > 100 µM (inactive) |  |  | 
CC(C)/C(Cl)=N/OC(=O)Nc1ccc(Br)cc1 | 2.58 µM (inactive) | 18.7 µM (inactive) | 11.6 µM (inactive) | 5.83 µM (inactive) | 2.9 µM (inactive) | 1.97 µM (inactive) | 15.5 µM (inactive) |  | 1.83 µM (inactive) | 2.39 µM (inactive) | 1.69 µM (inactive) |  | 16.7 µM (inactive) | 1.88 µM (inactive) | 14.6 µM (inactive) | 10.2 µM (inactive) | 17.1 µM (inactive) |  | 13.6 µM (inactive) | 
CC1(C)S[C@H](c2ccccc2C(=O)O)N[C@@H]1CC(=O)O | > 100 µM (inactive) | > 100 µM (inactive) |  | > 100 µM (inactive) | > 100 µM (inactive) | > 100 µM (inactive) |  | > 100 µM (inactive) | > 100 µM (inactive) | > 100 µM (inactive) |  | > 100 µM (inactive) | > 100 µM (inactive) | > 100 µM (inactive) | > 100 µM (inactive) | > 100 µM (inactive) | > 100 µM (inactive) | > 100 µM (inactive) |  | 
COc1ccc(/C=N/N=C(\N)NO)c(O)c1 | 4.39 µM (inactive) | > 10 µM (inactive) | > 10 µM (inactive) | 5.66 µM (inactive) | 3.53 µM (inactive) | > 10 µM (inactive) | > 10 µM (inactive) |  | 2.81 µM (inactive) | > 10 µM (inactive) | 9.75 µM (inactive) |  | 3.98 µM (inactive) | > 10 µM (inactive) | > 10 µM (inactive) | > 10 µM (inactive) | > 10 µM (inactive) |  | 3.48 µM (inactive) | 
C=C(C)C1CC/C(C)=C/CCC2(C)OC2CC/C(CO)=C\C1O (stereo unspecified) | 59.2 µM (inactive) | 98.4 µM (inactive) | > 100 µM (inactive) | > 100 µM (inactive) | > 100 µM (inactive) | 91.4 µM (inactive) | > 100 µM (inactive) |  | 36.9 µM (inactive) | 43 µM (inactive) | 52.1 µM (inactive) |  | > 100 µM (inactive) | 47.6 µM (inactive) | > 100 µM (inactive) | > 100 µM (inactive) | 66.7 µM (inactive) |  | 64.3 µM (inactive) | 
Cn1cnc([N+](=O)[O-])c1Sc1nc2ccccc2s1 |  | 11.7 µM (inactive) | 9.57 µM (inactive) | 13.3 µM (inactive) | 5.47 µM (inactive) | 3.96 µM (inactive) | 10.2 µM (inactive) | 1.36 µM (inactive) | 3.48 µM (inactive) | 1.89 µM (inactive) | 1.84 µM (inactive) | 10.5 µM (inactive) | 9.84 µM (inactive) | 3.33 µM (inactive) | 4.07 µM (inactive) | 2.15 µM (inactive) | 7.19 µM (inactive) | 11.5 µM (inactive) |  | 
O=C(/C=C1\Nc2ccccc2C(=O)N1c1ccc(Cl)cc1)c1ccncc1 | > 100 µM (inactive) | > 100 µM (inactive) | > 100 µM (inactive) | > 100 µM (inactive) | > 100 µM (inactive) | > 100 µM (inactive) |  |  | > 100 µM (inactive) | > 100 µM (inactive) | 60.1 µM (inactive) | > 100 µM (inactive) | > 100 µM (inactive) | > 100 µM (inactive) | > 100 µM (inactive) |  | > 100 µM (inactive) | > 100 µM (inactive) |  | 30.1 µM (inactive)
COC(=O)C(Cc1ccc([N+](=O)[O-])cc1)NC(=O)C(CC(=O)OC(C)(C)C)NC(=O)OC(C)(C)C (stereo unspecified) (Boc-Asp(OtBu)-[Phe(4-NO2)]-OMe; configuration not given here) | > 100 µM (inactive) | > 100 µM (inactive) | 14.3 µM (inactive) | > 100 µM (inactive) | > 100 µM (inactive) | > 100 µM (inactive) | 35.2 µM (inactive) |  | 21.4 µM (inactive) | 66.8 µM (inactive) | > 100 µM (inactive) |  | > 100 µM (inactive) | 30.2 µM (inactive) | 38.1 µM (inactive) | > 100 µM (inactive) | > 100 µM (inactive) |  | > 100 µM (inactive) | 
COc1ccc2c(c1)-c1nc(=S)n(CCCN(C)C)c3ccc([N+](=O)[O-])c(c13)N2 | 0.0269 µM (active) | 0.592 µM (active) | 0.49 µM (active) | 0.261 µM (active) | 0.224 µM (active) | 0.805 µM (active) | 1.5 µM (inactive) |  | 0.506 µM (active) | 0.141 µM (active) | 0.518 µM (active) |  | 1.36 µM (inactive) | 0.656 µM (active) | 0.456 µM (active) | 0.471 µM (active) | 0.617 µM (active) |  | 0.771 µM (active) | 
Cc1n[nH]c(=O)n1C1CCCC1 | > 100 µM (inactive) | > 100 µM (inactive) | > 100 µM (inactive) | > 100 µM (inactive) | > 100 µM (inactive) | > 100 µM (inactive) | > 100 µM (inactive) |  | > 100 µM (inactive) | > 100 µM (inactive) | > 100 µM (inactive) |  | > 100 µM (inactive) | > 100 µM (inactive) | > 100 µM (inactive) | > 100 µM (inactive) | > 100 µM (inactive) |  | > 100 µM (inactive) | 
Cn1c(O)c(C(=O)Nc2ccc([N+](=O)[O-])cc2)c(=O)n(C)c1=S | 2.25 µM (inactive) | 2.23 µM (inactive) | 1.54 µM (inactive) | 2.23 µM (inactive) | 2.26 µM (inactive) | 2.9 µM (inactive) | 2.47 µM (inactive) |  | 3.63 µM (inactive) | 3.08 µM (inactive) | 2.11 µM (inactive) | 3.3 µM (inactive) | 4.33 µM (inactive) | 3.31 µM (inactive) | 2.14 µM (inactive) | 1.12 µM (active) | 2.64 µM (inactive) | 3.69 µM (inactive) | 1.34 µM (inactive) | 
